# Assay results from patent publication US9914711B2 (priority 2013, dated 2018).
# Assays:
# C. violaceum CV026 [1] = assay: Preliminary screening of bacterial quorum sensing agonistic / inhibitory activity on LB plate (purple stain / white circle); assay type: cell-based; details: for Regulatory activity (bacterial quorum sensing regulatory activity): 1 μl of 0.065M compound spotted on plate, inhibitory screen with inducer C6-HSL, 30° C., 16-18 h; for Effect on bacterial quorum sensing (summary in words): summary of the activity evaluation experiments
# Experimental: 1.1 Preparation work: different compounds to be tested (Compounds 1-40 prepared in Example 1-40) were weighted and then were dissolved in 200 μl DMSO (dimethyl sulfoxide) to prepare a solution at a concentration of 0.065M. 5.0 mg inducer, N-hexanoyl homoserine lactone (C6-HSL, purchased from Sigma Company), was weighted and was dissolved in 200 μl DMSO (at a concentration of 0.125M), and the compounds and the inducer were stored at 4 for further use. C. violaceum CV026 (donated by Professor McLean J C from Texas State University) in LB culture medium (LB culture medium consisting of 1% (percentage by mass) tryptone, 0.5% (percentage by mass) yeast extract, 1% (percentage by mass) NaCl and water) was cultured under shaking in a shaker at 30, 200 rpm to get the culture medium for further use.
# 1.2 Method for preliminary screening of compounds having agonistic activity: 400 μl C. violaceum CV026 (at a bacterial concentration of 1×10^8/ml) was added to 5 ml melted semi-solid LB culture medium, and was mixed well; the mixed culture medium was poured into a solid LB plate; when the mixed culture medium was solidified on the plate, lattice was made thereon; 1 μl of the dissolved compounds to be tested (Compounds 1-40 in Examples 1-40, at a concentration of 0.065M) was spotted on the plate; when the compounds on the plate was dried in air, the plate was put in a 30° C. oven upside down and was cultured for a period of 16-18 h. If the compound to be tested has an agonistic effect on C. violaceum CV026 on the LB plate, purple stain will be induced on the LB plate. The agonistic activity of a compound is determined depending on whether purple stain is induced for C. violaceum CV026 on LB plate as well as the purple depth.
# 1.3 Method for preliminary screening of compounds having inhibitory activity: the inducer C6-HSL was diluted gradiently to 1000 times by means of 2-fold dilution; 15 μl diluted inducer and 400 μl C. violaceum CV026 in exponential phase (at a bacterial concentration of 1×10^8/ml) were mixed well and then were added to a 5 ml melted semi-solid LB culture medium; the mixture of inducer, C. violaceum, and semi-solid LB was poured onto a solid LB plate; when the mixture was solidified on the plate, lattice was made thereon: 1 μl of the dissolved compounds to be tested (Compounds 1-40 in Examples 1-40, at a concentration of 0.065M) was spotted on the plate; when the compounds on the plate were dried in air, the plate was put in a 30° C. oven upside down and was cultured for a period of 16-18 h. If the compound to be tested has an inhibitory effect on C. violaceum CV026 on the LB plate, white circle will appear on the LB plate. The inhibitory activity of a compound is preliminary determined depending on the size of the white circle appeared after C. violaceum CV026 was inhibited on LB plate.
# It is found after preliminary screening that 22 compounds according to the invention have bacterial quorum sensing regulatory activity, and the screening result was shown in Table 1.
# C. violaceum CV026 [2] = assay: Measurement of IC50 of compounds having an inhibitory effect on C. violaceum quorum sensing (purple pigment absorbance at 585 nm); assay type: cell-based; details: Chromobacterium violaceum, CV026, read-out: IC50 of compounds having bacterial quorum sensing inhibitory activity
# Experimental: 2. Measurement of IC50 of Compounds Having an Inhibitory Effect on C. violaceum Quorum Sensing
# 2.1 The wells of a 12-well plate were marked as initial concentration, 2, 4, 8, 16, 32, 64, 128, 256, DMSO group, and a blank control group from left to right and from up to bottom, respectively.
# 2.2 The monoclonal C. violaceum CV026 grew on LB solid plate was cultured to exponational phase in a 5 ml fresh LB liquid culture medium, 50 μl was then taken for seeding in a 5 ml LB culture medium, and was cultured until the optical density OD value was about 1.0 at 585 nm; the culture was then mixed well with LB culture medium at a ratio of 1:9 by volume (with OD of about 0.15), and was added to a 12-well plate in an amount of 2 ml/well.
# 2.3 The compounds preliminarily screened to have quorum sensing inhibitory activity were dissolved respectively in DMSO (at a concentration of 0.065M), and then 10 μl was taken into 10 μl DMSO solution to achieve the purpose of 2-fold dilution, and so on. Each compound was gradiently diluted to a highest fold of 256 (gradient dilution of 2, 4, 8, 16, 32, 64, 128, 256 fold).
# 2.4 To each well, 15 μl 1000-fold diluted inducer C6-HSL (initial concentration of 0.125M) and 8 μl compound solution at each diluted gradient was added; to DMSO control group, 8 μl DMSO was added; to a blank control group, 8 μl LB culture medium was added. Finally, it was ensured that 2 ml culture in each of the 12-well plate was mixed well.
# 2.5 The 12-well plate was placed in a 30° C. shaker at 130 rpm and was cultured for 10-12 h.
# 2.6 After the culture was finished, 1 ml culture was taken from each well and was put in a 1.5 ml EP tube and then was centrifugated at 12000 rpm for 10 mins. […] 200 μl supernatant pigment was put in a 96-well culture plate, and was measured for absorbance value at 585 nm by a Microplate Reader, […] the absorbance value and the corresponding concentration were plotted to get the IC50 value.
SMILES,Regulatory activity (bacterial quorum sensing regulatory activity) (C. violaceum CV026 [1]),Effect on bacterial quorum sensing (summary in words) (C. violaceum CV026 [1]),IC50 (C. violaceum CV026 [2]) [µM],melting point [°C]
"CCc1ccc(C(=O)NN2CCOC2=O)cc1 [Compound 11, 4-ethyl-N-(2-oxo-oxazolidin-3-yl)benzamide]",−,inhibitory effect on bacterial quorum sensing,13.9 ± 4.21,170 to 173
"O=C(NN1CCOC1=O)c1ccc(Br)cc1 [Compound 12, 4-bromo-N-(2-oxo-oxazolidin-3-yl)benzamide]",±,both an agonizing effect and an inhibitory effect,7.85 ± 1.71,202 to 204
"O=C(NN1CCOC1=O)c1ccc([N+](=O)[O-])cc1 [Compound 7, 4-nitro-N-(2-oxo-oxazolidin-3-yl)benzamide]",−,inhibitory effect on bacterial quorum sensing,18.7 ± 2.59,206 to 208
